Measured values published in patent US20190133968A1, “Applications of benzophenones in preparation of drug” (SHANXI MEDICAL UNIVERSITY, priority 2016, published 2019).

Test system: DN rats
Assay: type II diabetic nephropathy (DN) rat model (high-sugar high-fat diet + streptozocin)
Type: in vivo, SD (Sprague Dawley) rats
Conditions: for BUN / CREA / Glycated hemoglobin / Urinary protein / mALB (microalbumin in urine) / ICAM-1 / IL-1β / IL-6 / MDA / NF-κB / SOD / T-AOC / TGF-β1 / TNF-α / Glucose (GLU) / HDL-C / LDL-C / TC / TG / UA / Kidney coefficient / VCAM-1: gavage, 6 weeks; for Urinary protein / mALB (microalbumin in urine): 6-hour urine; for ICAM-1 / IL-1β / IL-6 / MDA / NF-κB / SOD / T-AOC / TGF-β1 / TNF-α / VCAM-1: renal tissues; for Glucose (GLU) / HDL-C / LDL-C / TC / TG / UA: serum; for Kidney coefficient: weights of two kidneys/body weight
Method: The solid dispersions are prepared through a solvent method, comprising steps of: respectively precisely weighing LM49, PVPK30 and tween80 with a weight ratio of 1:5:1, and A8, PVPK30 and tween80 with a weight ratio of 1:4:1; dissolving with appropriate absolute ethyl alcohol, continuously stirring, and uniformly mixing; placing on the water bath at 60° C., evaporating and removing the absolute ethyl alcohol, and obtaining a viscous material; placing in the freezer at −20° C., and freezing for 2 hours; taking out from the freezer, then placing in the vacuum drying oven, and drying for 24 hours; after becoming embrittlement, smashing and sieving with a sieve of 80 meshes, and then placing in the dryer for storage.
The healthy adult male SD rats (having a weight of 180-220 g) are fed with the high-sugar and high-fat diet for 4 weeks; the rats are fasting overnight; and streptozocin (STZ) of 40 mg/kg is intraperitoneally injected into the rats. The rats of normal control group are injected with the sodium citrate buffer of same volume; 72 hours later, the rats are fasting for 12 hours. […] During the administration period, the successfully established model rats are still fed with the high-sugar and high-fat diet, while the rats of the normal control group are fed with the normal diet.
After administration for 6 weeks, 6-hour urine of the rats is collected with the metabolism cage.
The rats are fasting overnight and anesthetized intraperitoneally, then the abdominal aorta blood thereof is drawn for measuring the related indexes. The two kidneys of each rat are washed with the normal saline; weights of the kidneys are recorded; and the kidney coefficient (weights of two kidneys/body weight) is calculated. The renal tissues (comprising the glomerulus and renal tubules) at the same part of the left kidney are cut lengthwise and immersed in the 10% neutral formalin for pathomorphology analysis, and the other parts of the left kidney are used for biochemical index measurement; the right kidney is used for mechanism research and stored in the freezer at −80° C.
After successfully establishing the model rats, expect the normal control group (ten rats), the remaining rats are randomly divided into eight groups, wherein each group has twelve rats. The eight groups are respectively the model group, the LM49 solid dispersion low-dose group (with the drug concentration of 3 mg/kg), the LM49 solid dispersion medium-dose group (with the drug concentration of 9 mg/kg), the LM49 solid dispersion high-dose group (with the drug concentration of 27 mg/kg), the A8 solid dispersion low-dose group (with the drug concentration of 3 mg/kg), the A8 solid dispersion medium-dose group (with the drug concentration of 9 mg/kg), the A8 solid dispersion high-dose group (with the drug concentration of 27 mg/kg), and the captopril control group (with the drug concentration of 15 mg/kg).
Administration Way: By Gavage.
The rats of the normal control group and the model group are administrated with the normal saline of 1.0 ml/100 g; the rats of the positive control group, the LM49 solid dispersion high-dose, medium-dose and low-dose groups and the A8 solid dispersion high-dose, medium-dose and low-dose groups are respectively administrated with the drugs of different concentrations, and the administration volume is 1.0 ml/100 g.
The solid dispersions are dissolved by the normal saline; and the rats of the positive control group are administrated with the 0.5% CMC-Na (sodium carboxymethyl cellulose) suspension.
The rats are administrated seven days a week, for totally six weeks.
The IBM SPSS Statistics 20 software is used for data processing, and the data is represented in x±s. The one-way analysis of variance (ANOVA) is adopted for comparison among the groups. According to the homogeneity test results of variance, if the variance is equal, the LSD (least significant difference) test is adopted; if the variance is unequal, the Dunnett's T3 test is adopted. […]

In the case of `O=C(c1cc(OC(=O)N2CCOCC2)c(OC(=O)N2CCOCC2)cc1Cl)c1cc(Cl)ccc1OC(=O)N1CCOCC1` [A8, 4,5,2′-tris(4-morpholinemethanoyl)-2,5′-dichlorobenzophenone], the BUN (DN rats, high-dose 27 mg/kg) is reported as 10.05 ± 1.61 mmol/L, the CREA (DN rats, high-dose 27 mg/kg) is reported as 52.06 ± 1.66 µmol/L and the Glycated hemoglobin (DN rats, high-dose 27 mg/kg) is reported as 6.44 ± 0.53^□□● %. The Urinary protein (DN rats, high-dose 27 mg/kg) was 1.42 ± 0.71^□□●●▴ mg/6 h, the “mALB (microalbumin in urine)” value (DN rats, high-dose 27 mg/kg) was 39.00 ± 7.58^□□●●▴▴ μg/6 h and the ICAM-1 (DN rats, high-dose 27 mg/kg) was 322.5 ± 85.70 pg/mgprog. The IL-1β (DN rats, high-dose 27 mg/kg) was 133.45 ± 24.68 pg/mgprog, the IL-6 (DN rats, high-dose 27 mg/kg) was 71.29 ± 14.14^□□● pg/mgprog and the MDA (DN rats, high-dose 27 mg/kg) was 1.42 ± 0.25 nmol/mgprog. The NF-κB (DN rats, high-dose 27 mg/kg) was 298.32 ± 58.92^□□▴▴◯◯ pg/mgprog, the SOD (DN rats, high-dose 27 mg/kg) was 4.37 ± 1.25 U/mgprog and the T-AOC (DN rats, high-dose 27 mg/kg) was 1.32 ± 0.17 U/mgprog. The TGF-β1 (DN rats, high-dose 27 mg/kg) was 21.36 ± 4.64^□□●●▴▴ pg/mgprot, the TNF-α (DN rats, high-dose 27 mg/kg) was 304.51 ± 73.47^□ pg/mgprog and the “Glucose (GLU)” value (DN rats, high-dose 27 mg/kg) was 9.75 ± 2.11^□□●●▴◯ mmol/L. The HDL-C (DN rats, high-dose 27 mg/kg) was 1.20 ± 0.27 mmol/L, the LDL-C (DN rats, high-dose 27 mg/kg) was 1.01 ± 0.20^□□●▴ mmol/L and the TC (DN rats, high-dose 27 mg/kg) was 1.42 ± 0.19^□□●●▴◯ mmol/L. The TG (DN rats, high-dose 27 mg/kg) was 0.30 ± 0.08^□□ mmol/L, the UA (DN rats, high-dose 27 mg/kg) was 26.44 ± 5.85^□□●● μmol/L and the Kidney coefficient (DN rats, high-dose 27 mg/kg) was 0.86 ± 0.05^□ %. The “lesions of the renal tissues” value (DN rats, kidney pathology (HE, Masson staining)) was “effectively reduce the lesions of the renal tissues”, the BUN (DN rats, low-dose 3 mg/kg) was 10.56 ± 1.74 mmol/L and the CREA (DN rats, low-dose 3 mg/kg) was 54.16 ± 2.95 µmol/L. For the same compound, the Glycated hemoglobin (DN rats, low-dose 3 mg/kg) was 8.64 ± 0.45%, the Urinary protein (DN rats, low-dose 3 mg/kg) was 3.64 ± 0.65^□□ mg/6 h and the “mALB (microalbumin in urine)” value (DN rats, low-dose 3 mg/kg) was 88.91 ± 10.33^□□ μg/6 h. For the same compound, the ICAM-1 (DN rats, low-dose 3 mg/kg) was 339.84 ± 92.15 pg/mgprog, the IL-1β (DN rats, low-dose 3 mg/kg) was 178.45 ± 31.59 pg/mgprog and the IL-6 (DN rats, low-dose 3 mg/kg) was 139.85 ± 55.41^□ pg/mgprog. The MDA (DN rats, low-dose 3 mg/kg) was 1.52 ± 0.38 nmol/mgprog, the NF-κB (DN rats, low-dose 3 mg/kg) was 1601.45 ± 206.73^□●● ^ pg/mgprog and the SOD (DN rats, low-dose 3 mg/kg) was 5.57 ± 1.75 U/mgprog. The T-AOC (DN rats, low-dose 3 mg/kg) was 1.39 ± 0.19 U/mgprog, the TGF-β1 (DN rats, low-dose 3 mg/kg) was 59.35 ± 7.34^□□ pg/mgprot and the TNF-α (DN rats, low-dose 3 mg/kg) was 485.60 ± 138.80 pg/mgprog. For the same compound, the VCAM-1 (DN rats, low-dose 3 mg/kg) was 37.85 ± 9.28 pg/mgprog, the “Glucose (GLU)” value (DN rats, low-dose 3 mg/kg) was 13.11 ± 3.95^□□ mmol/L and the HDL-C (DN rats, low-dose 3 mg/kg) was 1.21 ± 0.28 mmol/L. The LDL-C (DN rats, low-dose 3 mg/kg) was 1.77 ± 0.57^□□ mmol/L, the TC (DN rats, low-dose 3 mg/kg) was 2.87 ± 0.69^□□ mmol/L and the TG (DN rats, low-dose 3 mg/kg) was 0.39 ± 0.05^□□ mmol/L. For the same compound, the UA (DN rats, low-dose 3 mg/kg) was 28.22 ± 7.14^□□●● μmol/L, the Kidney coefficient (DN rats, low-dose 3 mg/kg) was 1.06 ± 0.05% and the BUN (DN rats, medium-dose 9 mg/kg) was 10.07 ± 2.85 mmol/L. For the same compound, the CREA (DN rats, medium-dose 9 mg/kg) was 53.06 ± 3.75 µmol/L, the Glycated hemoglobin (DN rats, medium-dose 9 mg/kg) was 7.33 ± 0.77^□ % and the Urinary protein (DN rats, medium-dose 9 mg/kg) was 2.80 ± 1.02^□□●● mg/6 h. The “mALB (microalbumin in urine)” value (DN rats, medium-dose 9 mg/kg) was 51.76 ± 9.44^□□●▴ μg/6 h, the ICAM-1 (DN rats, medium-dose 9 mg/kg) was 321.63 ± 82.35 pg/mgprog and the IL-1β (DN rats, medium-dose 9 mg/kg) was 155.22 ± 19.45 pg/mgprog. For the same compound, the IL-6 (DN rats, medium-dose 9 mg/kg) was 111.69 ± 35.86^□ pg/mgprog, the MDA (DN rats, medium-dose 9 mg/kg) was 1.48 ± 0.16 nmol/mgprog and the NF-κB (DN rats, medium-dose 9 mg/kg) was 786.93 ± 79.73^□□▴▴● pg/mgprog. For the same compound, the SOD (DN rats, medium-dose 9 mg/kg) was 5.12 ± 1.41 U/mgprog, the T-AOC (DN rats, medium-dose 9 mg/kg) was 1.37 ± 0.31 U/mgprog and the TGF-β1 (DN rats, medium-dose 9 mg/kg) was 27.91 ± 5.90^□□▴▴ pg/mgprot. The TNF-α (DN rats, medium-dose 9 mg/kg) was 321.27 ± 86.34^□ pg/mgprog, the VCAM-1 (DN rats, medium-dose 9 mg/kg) was 31.09 ± 5.42 pg/mgprog and the “Glucose (GLU)” value (DN rats, medium-dose 9 mg/kg) was 11.86 ± 2.96^□□▴ mmol/L. For the same compound, the HDL-C (DN rats, medium-dose 9 mg/kg) was 1.23 ± 0.40 mmol/L, the LDL-C (DN rats, medium-dose 9 mg/kg) was 1.41 ± 0.33^□□ mmol/L and the TC (DN rats, medium-dose 9 mg/kg) was 2.33 ± 0.58^□□ mmol/L. The TG (DN rats, medium-dose 9 mg/kg) was 0.30 ± 0.07^□□ mmol/L, the UA (DN rats, medium-dose 9 mg/kg) was 27.18 ± 5.37^□□●● μmol/L and the Kidney coefficient (DN rats, medium-dose 9 mg/kg) was 1.00 ± 0.11%. The “effect on resisting the DN of rats” value (overall summary in words) was “stronger effect in resisting the DN of rats” and the “activity in resisting the type II diabetic nephropathy, A8 compared with LM49” value (rat, in vivo) was “higher activity in resisting the type II diabetic nephropathy than the compound LM49”.
